Reference: patent US20140363438A1, “NEUREGULIN ANTIBODIES AND USES THEREOF” (Genentech, Inc., priority 2011, published 2014)

How the values were obtained:
[1] = system: Calu3-shNRG1 xenograft tumors; assay: Calu3-shNRG1 xenograft, NRG1 knockdown +/- chemotherapy; format: in vivo, human; conditions: dox induces NRG1 knockdown, chemotherapy paclitaxel + cisplatin
Protocol: Tumor cells (10-20 million) were transplanted into right flank of athymic nude mice. When tumor size reached ˜200 mm^3, the mice were divided into different treatment groups. Mice were then treated with either vehicle or chemotherapy (paclitaxel, i.v.+cisplatin, i.p.) for the initial studies. The chemotherapy dosing regimen was paclitaxel 20 mg/kg i.v. every other day for 5 doses and cisplatin 5 mg/kg i.p. on days 1 and 7 for the Calu3 model and days 1 and 14 for the H441 model. Regressed tumors and time matched vehicle controls were collected at least 1 week after the last dose of chemo. Tumors were dissociated using dispase/collagenase and samples were FACS sorted to collect the GFP positive tumor cells. For the NRG1 knockdown studies, the treatment groups were: sucrose, doxycycline (dox), chemotherapy+sucrose, and chemotherapy+doxycycline. […]
To determine the efficacy of NRG1-targeting in the Calu3 model, Calu3-shNRG1 tumor bearing mice were assigned to four groups; 1) vehicle+sucrose, 2) vehicle+dox, 3) chemotherapy+sucrose, and 4) chemotherapy+dox. […] Tumor volume was measured twice a week for the duration of the study.
The effect of NRG1 on tumor relapse was assessed by comparing the growth of tumors in the chemotherapy+sucrose with those in the chemotherapy+dox group. […] Therefore, the measured volumes were considerably larger than the actual tumor volume in the dox-treated groups. […]

[2] = system: lung tumors of LSL-K-rasG12D;p53Fl/Fl mice; assay: Lung tumor burden by micro-CT in LSL-K-rasG12D;p53Fl/Fl mice; format: in vivo, mouse; conditions: FIG. 3C
Protocol: (§1) LSL-K-ras^G12D;p53^F1/+ were infected with Adeno-Cre virus and allowed to age for 16 weeks post-tumor induction. Baseline CT scans were performed at 16 weeks post-tumor induction (day 0 of study) and mice were grouped such that average starting tumor volume per group were equal. Mice were dosed once a week for three weeks with cisplatin (7 mg/kg) or phosphate-buffered saline, and bi-weekly with HER4ECD-Fc (25 mg/kg) or anti-ragweed IgG2A (25 mg/kg) for the duration of the study. Serial CT scans were performed at days 14, 45, and 66.
(§2) Two micro-CT systems (vivaCT 40 and vivaCT 75, Scanco Medical, Switzerland) were utilized for longitudinal lung imaging. Animals were randomized between micro-CT systems and rescanned on the same system used for baseline imaging. […] The imaging data were evaluated in the coronal plane using the image analysis software package Analyze (AnalyzeDirect, Inc., Lenexa, Kans., USA). Once the largest cross-sectional plane of each tumor was identified, estimates of maximal tumor diameter (d1) and the largest perpendicular diameter (d2) were determined. The total tumor burden was calculated as the sum of the cross-product of the directional estimates (d1×d2) of all the tumors.
A second study was carried out in LSL-K-ras^G12D;p53^F1/F1 mice as described above. […] Combination activity was assessed using an unpaired t-test against its monotherapy * p<0.05, ** p<0.01.

NRG1/HER3 signaling = assay: HER4-ECD on serum starved LKPH1 and LKPH2 cells, p-HER3 Western blot; format: cell-based, mouse
Protocol: To induce shRNA expression, stable cell lines harboring doxcycline-inducible shNRG1 or shLuciferase were grown in 1 ug/ml doxcycline for a total of 6 days. The first day of induction cells were grown in 10% FBS, followed by a titration of FBS over the course of 4 more days. The cells were then completely serum starved during the last 6 hours of growth. Cells were then processed for RNA extraction or western blotting. For HER4ECD studies in mouse lung tumor cell lines, LKPH cells were grown in serum starved conditions for 24 hours prior to addition of HER4ECD at a concentration of 2 mg/ml. LKPH cells were then incubated for another 48 hours prior to processing for Western blotting. Addition of exogenous NRG1 on H441 cells were performed as follows: H441 cells were serum starved for 18 hours prior to addition of 1 uM recombinant human NRG1 beta-1 extracellular domain (R&D systems) or 1 uM anti-ragweed IgG2A as the control. Ten minutes after addition of NRG1 or ragweed, cells were processed for Western blotting.
To test the role of NRG1 signaling in promoting relapse after chemotherapy in the LSL-K-ras^G12D;p53^F1/+ mouse model, a ligand-trap approach to sequester NRG1 and prevent its binding to receptors in vivo was employed. A fusion of the human HER4 extracellular domain (HER4-ECD) fused to murine IgG2A Fc was generated. […]

[3] = system: Calu3-shHER3 xenograft tumors; assay: Calu3-shHER3 xenograft; format: in vivo, human; conditions: Calu3-shHER3, dox 2 gm/L in drinking water
Protocol: To confirm this role in vivo, studies using Calu3-shHER3 and Calu3-shHER4 xenograft models treated with either sucrose or dox were performed. Mice with established Calu3-shHER3 or Calu3-shHer4 xenograft tumors were administered vehicle (sucrose) or dox (2 gm/L) in their drinking water ad libitum (n=14/group).

[4] = system: lung tumors of LSL-K-rasG12D;p53Fl/+ mice; assay: Lung tumor burden by micro-CT in LSL-K-rasG12D;p53Fl/+ mice; format: in vivo, mouse; conditions: FIG. 3A-B
Protocol: as §1
as §2, with “tumors. […]” for “tumors.”

NRG1β = target: T1, NRG1β (Homo sapiens, UniProt Q02297); assay: Inhibition of 125I-HRG (NRG1β) binding to HER3-ECD-Fc; conditions: parental anti-NRG1 antibodies, FIG. 6
T1 sequence (Q02297 177-244 isoform Q02297-6 limits assumed): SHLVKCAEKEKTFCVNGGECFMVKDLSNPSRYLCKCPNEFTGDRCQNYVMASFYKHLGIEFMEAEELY
Protocol: The antibodies were tested for their ability to inhibit NRG1β binding to HER3-Fc. 125I-HRG was generated at Genentech as described previously (Sliwkowski et al JBC 1994). Binding assays were performed in Nunc break-apart strip wells (Thermo-Fisher Scientific, Rochester, N.Y.). Plates were coated at 4° C. overnight with 250 ng/well of HER3-ECD-Fc fusion protein in carbonate buffer (pH 9.6). Plates were rinsed twice with wash buffer (PBS/0.05% Tween 20) and blocked with 100 μL PBS including 1% bovine serum albumin (BSA) for 30 minutes. Increasing concentrations of anti-NRG1 antibodies in RPMI 1640 medium (Invitrogen; Carlsbad, Calif.) with 0.2% BSA were pre-bound to HER3-ECD-Fc. 125I-HRG (specific activity: 266 mCi/mg, 75,000 cpm/well) was added immediately after in a total assay volume of 130 μL. Plates were incubated for 2 hours at room temperature, rinsed twice, and individual wells were counted using a 100 Series Iso Data γ-counter. Samples were assayed in triplicates. Plotting was performed using KaleidaGraph 3.6 software. […]
The affinity matured variants were tested for their ability to block HRGβ binding to HER3-Fc. […] Plates were incubated for 2 hours at room temperature, rinsed twice, and individual wells were counted using a 100 Series Iso Data γ-counter. […]

HRG1β = assay: Competition assay with 538.24.17 for HRG1β; format: binding; conditions: FIG. 12
Protocol: (§3) A competition assay was performed to determine the binding specificity of the 526.09 and 526.02 antibodies.

HRG1a = target: T2, HRG1a (Homo sapiens, UniProt Q02297); assay: Competition assay with 538.24.17 for HRG1a; format: binding; conditions: FIG. 12
T2 sequence (Q02297 177-241): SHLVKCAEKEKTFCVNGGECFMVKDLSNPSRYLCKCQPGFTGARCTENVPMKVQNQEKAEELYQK
Protocol: as §3

For `C[C@H]1c2cccc(O)c2C(O)=C2C(=O)[C@]3(O)C(O)=C(C(N)=O)C(=O)[C@@H](N(C)C)[C@@H]3[C@@H](O)[C@@H]21` [vehicle+dox], the “tumor volume doubling time (TDT)” value [1] was 44.5 days.

For “HER4-ECD: fusion of the human HER4 extracellular domain to murine IgG2A Fc, ligand trap to sequester NRG1”, the “tumor burden by micro-CT on day 28” value [2] was “no effect” and the p-HER3 levels (NRG1/HER3 signaling) was “diminished”.

In the case of `C[C@H]1c2cccc(O)c2C(=O)C2=C(O)[C@]3(O)C(=O)C(C(N)=O)=C(O)[C@@H](N(C)C)[C@@H]3[C@@H](O)[C@@H]21` [dox, doxycycline], the “tumor volume doubling time (TDT)” value [3] is reported as 19 days.

In the case of `N.N.[Cl][Pt][Cl]` [cisplatin], the “tumor growth (average tumor burden and tumor growth rate)” value [4] is reported as “not significantly different”.

B1: 526.90: parental anti-NRG1 antibody; VH SEQ ID NO: 52, VL SEQ ID NO: 53 (antibody, V domains shown)
VH: EVQLVESGGGLVQPGGSLRLSCAASGFTFSGNAMSWVRQAPGKGLEWVSWIYPSGGNTYYADSVKGRFTISADTSKNTAYLQMNSLRAEDTAVYYCARSYILSYPSITWAFDYWGQGTLVTVSS
VL: DIQMTQSPSSLSASVGDRVTITCRASQSISSYLAWYQQKPGKAPKLLIYGASSRASGVPSRFSGSGSGTDFTLTISSLQPEDFATYYCQQSYSTPITFGQGTKVEIKR
modifications: Heavy chain variable region; Light chain variable region
With B1 the “dose-dependent inhibition of NRGβ binding to HER3-Fc” value (NRG1β) was “most potent blockers”, the “competition with 538.24.17 for HRG1β” value (HRG1β) was “competes” and the “competition with 538.24.17 for HRG1a” value (HRG1a) was “competes”.
